This experiment has as its target T1, human CB2R (Homo sapiens, UniProt P34972).
T1 construct: host or cells: CHO cells
The experiment can be described thus: CB2R mediated modulation of cAMP synthesis. The class given is cell-based. Conditions: found through the use of the above described assays (binding and cAMP); CHO cells expressing human CB2R, forskolin-stimulated cAMP. In a few lines:
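CHO cells expressing human CB2R were treated for 30 min at 37 °C with compound in buffer containing 1 mM IBMX, 0.25% BSA and 10 uM forskolin. cAMP was measured after lysis. EC50 is the concentration giving 50% inhibition of forskolin-stimulated cAMP, scaled to the level set by 1 uM CP55940, fitted by four-parameter logistic.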
T1 sequence (P34972 whole entry): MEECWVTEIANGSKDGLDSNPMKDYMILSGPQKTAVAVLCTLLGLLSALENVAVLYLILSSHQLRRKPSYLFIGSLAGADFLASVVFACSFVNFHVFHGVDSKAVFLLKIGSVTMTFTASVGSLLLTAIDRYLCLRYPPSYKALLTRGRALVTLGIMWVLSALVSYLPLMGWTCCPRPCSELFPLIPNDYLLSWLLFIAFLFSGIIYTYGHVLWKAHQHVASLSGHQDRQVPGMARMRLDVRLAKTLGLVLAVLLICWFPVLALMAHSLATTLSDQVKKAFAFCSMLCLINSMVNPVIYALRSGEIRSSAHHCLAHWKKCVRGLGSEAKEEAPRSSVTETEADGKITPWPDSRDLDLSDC
For the compound `CC(C)(C)c1cc(NC(=O)C(C)(C)S(=O)(=O)c2ccc(Cl)cc2)ccn1` [N-(2-tert-butylpyridin-4-yl)-2-[(4-chlorophenyl)sulfonyl]-2-methylpropanamide], the agonistic activity entry is recorded as “agonistic activity”.

On to `CC(C)c1cc(NC(=O)C(C)(C)S(=O)(=O)c2ccc(C(F)(F)F)nc2)n(C)n1` [N-(3-isopropyl-1-methyl-1H-pyrazol-5-yl)-2-methyl-2-{[6-(trifluoromethyl)pyridin-3-yl]sulfonyl}propanamide], for which the agonistic activity result was “agonistic activity”.

Regarding `CCC(C)c1cc(NC(=O)C(C)(C)S(=O)(=O)c2ccc(Cl)cc2)on1` (stereo not drawn) [N-(3-sec-Butyl-isoxazol-5-yl)-2-(4-chloro-benzenesulfonyl)-2-methyl-propionamide], the agonistic activity entry is reported as “agonistic activity”.

Regarding `CC(C)(C)c1cc(NC(=O)C(C)(C)S(=O)(=O)c2ccc(F)cc2F)on1` [N-(3-tert-Butyl-isoxazol-5-yl)-2-(2,4-difluoro-benzenesulfonyl)-2-methyl-propionamide], the agonistic activity result was “agonistic activity”.

In the case of `CC(C)(C)c1cc(NC(=O)C(C)(C)S(=O)(=O)c2cc(F)ccc2F)on1` [N-(3-tert-Butyl-isoxazol-5-yl)-2-(2,5-difluoro-benzenesulfonyl)-2-methyl-propionamide], the agonistic activity entry was “agonistic activity”.

For `Cc1ccc(S(=O)(=O)C(C)(C)C(=O)Nc2cc(C(C)(C)C)no2)cc1F` [N-(3-tert-Butyl-isoxazol-5-yl)-2-(3-fluoro-4-methyl-benzenesulfonyl)-2-methyl-propionamide], the agonistic activity entry is listed as “agonistic activity”.

For `CC(C)(C)c1cc(NC(=O)C(C)(C)S(=O)(=O)c2ccc(Cl)cc2F)on1` [N-(3-tert-Butyl-isoxazol-5-yl)-2-(4-chloro-2-fluoro-benzenesulfonyl)-2-methyl-propionamide], the agonistic activity entry was “agonistic activity”.

Consider `CC(C)(C)c1cc(NC(=O)C(C)(C)S(=O)(=O)c2ccc(Cl)cc2)on1` [N-(3-tert-Butyl-isoxazol-5-yl)-2-(4-chloro-benzenesulfonyl)-2-methyl-propionamide], for which the agonistic activity result is given as “agonistic activity”.

As for `CC(C)(C)c1cc(NC(=O)C(C)(C)S(=O)(=O)c2ccc(F)cc2)on1` [N-(3-tert-Butyl-isoxazol-5-yl)-2-(4-fluoro-benzenesulfonyl)-2-methyl-propionamide], the agonistic activity entry is recorded as “agonistic activity”.

As to `COc1ccc(S(=O)(=O)C(C)(C)C(=O)Nc2cc(C(C)(C)C)no2)cc1` [N-(3-tert-Butyl-isoxazol-5-yl)-2-(4-methoxy-benzenesulfonyl)-2-methyl-propionamide], the agonistic activity result is given as “agonistic activity”.

As for `CC(C)(C)c1cc(NC(=O)C(C)(C)S(=O)(=O)c2ccc(C(F)(F)F)cc2)on1` [N-(3-tert-Butyl-isoxazol-5-yl)-2-methyl-2-(4-trifluoromethyl-benzenesulfonyl)-propionamide], the agonistic activity result is given as “agonistic activity”.

In the case of `Cc1ccc(S(=O)(=O)C(C)(C)C(=O)Nc2cc(C(C)(C)C)no2)cc1` [N-(3-tert-Butyl-isoxazol-5-yl)-2-methyl-2-(toluene-4-sulfonyl)-propionamide], the agonistic activity entry was “agonistic activity”.

`CC(C)(C)c1cccc(NC(=O)C(C)(C)S(=O)(=O)c2ccc(Cl)cc2)c1` [N-(3-tert-Butyl-phenyl)-2-(4-chloro-benzenesulfonyl)-2-methyl-propionamide]: the agonistic activity entry is “agonistic activity”.

Consider `Cn1nc(C(C)(C)C)cc1NC(=O)C(C)(C)S(=O)(=O)c1ccc(S(C)(=O)=O)cc1` [N-(3-tert-butyl-1-methyl-1H-pyrazol-5-yl)-2-methyl-2-{[4-(methylsulfonyl)phenyl]sulfonyl}propanamide], for which the agonistic activity result is reported as “agonistic activity”.

In the case of `CC(C)(C)c1cc(NC(=O)C(C)(C)S(=O)(=O)c2ccc(C(F)(F)F)nc2)on1` [N-(3-tert-butylisoxazol-5-yl)-2-methyl-2-{[6-(trifluoromethyl)pyridin-3-yl]sulfonyl}propanamide], the agonistic activity entry is listed as “agonistic activity”.

The values above are taken from patent US8299111B2, “Compounds which modulate the CB2 receptor” (Boehringer Ingelheim International GmbH, priority 2006, dated 2012).
